Laboratory results from US20080299060A1, “Pharmaceutical Composition for the Treatment of Nail Diseases” (TLT MEDICAL LTD., priority 2006, published 2008).

Assay: In-vitro nail permeation assay (Franz type diffusion cells)
Type: in vitro ADME, human
Settings: for Mean value of terbinafine concentration in the 5 mL receptor chamber of the Franz cell, Day 3 / Mean value of terbinafine concentration in the 5 mL receptor chamber of the Franz cell, Day 5: n=3
Text: Permeation fluxes of active substances, determined from nail permeation assays, are used to predict the efficacy of the active substances in a clinical situation. A permeation assay similar to the one reported by Franz (T. J. Franz, Dermatology, 184, 18-20, 1992) was used to investigate the applicability of the present invention to the treatment of onychomycosis and, in particular, to evaluate the permeation fluxes of a terbinafine containing pharmaceutical composition and a protective layer in laser pre-treated human cadaver great toenails. The experimental setup emulates the clinical situation where the pharmaceutical composition remains liquid for an extended period of time inside the nail holes in the case of laser pretreated nails to maximize the diffusion of the terbinafine into the nail.
Human cadaver great toenails selected for the tests were soaked in physiological buffer solution for several hours before starting the assay. Nails were prepared for the assay by removal of epidermal residues on the ventral side. Round nail discs of 16 mm in diameter were punched. […] Nails were masked on the dorsal side by a silicon mounting ring leaving a nail area of 10 mm in diameter where the nails were exposed to the pharmaceutical composition and the protective layer.
Three groups of nail samples were investigated.
Group 1: Untreated nail samples were used in this group which is the control group. These nails were exposed to 25 μL of a lacquer containing 9% w/w terbinafine once a day.
(§1) Group 2: In this group perforated nails were used. These nails were exposed to 25 μL of a 10% w/w terbinafine in ethanol solution once a day. After the application of the 10% w/w ethanolic solution to these nails, nails were covered with 25 μL of a lacquer containing 9% w/w terbinafine to form the protective layer according to the present invention.
as §1, with “3:” for “2:”, “nails, these” for “nails,”, “without” for “containing 9% w/w”
Franz type diffusion cells made of glass were used in the assays having a volume of ca. 5 mL using demineralized water as receptor buffer. Nail samples were fixed on the Franz cells with sealing silicone and Teflon discs pressed with a metallic spring loading system. In this way the ventral sides of the nails were in contact with demineralized water in the cell while the dorsal sides were in contact with the pharmaceutical formulations and protective layer according to Table 1. Diffusion cells were kept at 32° C. during the permeation assays.
Cleaning of the nail sample and dissolution of previous layers of pharmaceutical composition and protective layers were performed prior to every reapplication of the pharmaceutical composition and the protective layer. For this purpose 100 microliters of dissolvent were applied to every nail sample. Subsequently, the nail samples were rubbed with a cleaning brush to ensure an exhaustive cleaning and then were dried with a cotton swab to remove with the dissolvent also the old components of the pharmaceutical solution and the protective layer. 25 microliters of the pharmaceutical composition were then applied to the exposed nail area and distributed with the application brush.
Samples of receptor fluid were collected at various time points and analyzed by liquid chromatography and mass spectroscopy. The removed sample volume was replaced by demineralized water. This dilution effects were accounted in the final determination of the permeation fluxes.

[1] = Group 1 (control): untreated nails, 9% w/w terbinafine lacquer once a day, dissolvent ethanol, 32° C.
[2] = Group 2: laser pretreated nails (400 partial orifices/cm^2), 10% w/w terbinafine in ethanol once a day, protective layer 9% w/w terbinafine lacquer
[3] = Group 3: laser pretreated nails (400 partial orifices/cm^2), 10% w/w terbinafine in ethanol once a day, protective layer lacquer without terbinafine

- Permeation Fluxes (Group 1 (control): untreated nails, 9% w/w terbinafine lacquer once a day, dissolvent ethanol): 4.34 ng/cm^2/h
- Mean value of terbinafine concentration in the 5 mL receptor chamber of the Franz cell, Day 3 [1]: 82.4 ng/mL
- Mean value of terbinafine concentration in the 5 mL receptor chamber of the Franz cell, Day 5 [1]: 115.1 ng/mL
- increase in the permeation fluxes as compared to the control group (group 1) (Group 2 (protective layer also contains terbinafine) vs group 1): 34 fold
- Mean value of terbinafine concentration in the 5 mL receptor chamber of the Franz cell, Day 3 [2]: 305.2 ng/mL
- Mean value of terbinafine concentration in the 5 mL receptor chamber of the Franz cell, Day 5 [2]: 1432.9 ng/mL
- Permeation Fluxes (Group 2: laser pretreated nails, 10% w/w terbinafine in ethanol once a day, protective layer 9% w/w terbinafine lacquer): 149.6 ng/cm^2/h
- increase in the permeation fluxes as compared to the control group (group 1) (Group 3 (protective layer does not contain terbinafine) vs group 1): 5 fold
- Mean value of terbinafine concentration in the 5 mL receptor chamber of the Franz cell, Day 3 [3]: 94.5 ng/mL
- Mean value of terbinafine concentration in the 5 mL receptor chamber of the Franz cell, Day 5 [3]: 272.6 ng/mL
- Permeation Fluxes (Group 3: laser pretreated nails, 10% w/w terbinafine in ethanol once a day, protective layer lacquer without terbinafine): 23.6 ng/cm^2/h
SMILES: CN(C/C=C/C#CC(C)(C)C)Cc1cccc2ccccc12 [terbinafine]
